# Read-outs that look alike come from different tables or passages of the source.
# How the values were obtained:
# [1] = test system: P. falciparum 3D7 (chloroquine-sensitive); test: pLDH antimalarial assay, P. falciparum 3D7 culture; type: cell-based, Plasmodium falciparum; conditions: for EC50: Plasmodium falciparum, read-out: P. falciparum 3D7 (CQ-Sensitive) EC50 ± S.D.; for Selectivity Index (SI), (CC50 MTT/EC50 pLDH), CQ-Sensitive: Vero CC50 / 3D7 EC50
# Procedure: (§1) The parasites were cultivated by the Trager and Jensen methods to determine the antimalarial activity of the hybrid 4-aminoquinoline-pyrano[2,3-c]pyrazole derivatives against chloroquine-sensitive P. falciparum 3D7 and chloroquine-resistant P. falciparum K1. […] The parasites were maintained in continuous culture in fresh group O (Rhesus positive) human erythrocytes suspended in 2% hematocrit in RPMI 1640 containing […] Albumax I, glucose (3 g/L), hypoxanthine (45 μg/L), and gentamicin (50 μg/L). Plasmodium lactate dehydrogenase (pLDH) assays were performed as described by Makler et al., with slight modification. Parasites were plated in asynchronized phase at 2% hematocrit and 2% parasitemia in 100 μL of the test compounds. The compounds were dissolved in DMSO and further diluted in a culture medium. Chloroquine diphosphate and artemisinin were used as antimalarial reference drugs. Unparasitized erythrocytes without the test compounds were the blanks, while parasitized erythrocytes without test compounds were the control for the assay. Plates were placed in an incubator supplied with 5% CO2 and incubated at 37 °C for 48 h. After incubation, plates were subjected to three 30 min of freeze-thaw cycles to lyse and re-suspend the erythrocytes in the culture. Subsequently, Malstat reagent (100 μL) and a nitro blue tetrazolium salt/phenazine ethosulfate (NBT/PES) solution (25 μL) were added to each well of a new 96-well microtiter plate. The culture (25 μL) was then added to the corresponding well of the reagent plate to initiate the lactate dehydrogenase reaction. Color development of the plate was monitored calorimetrically at 650 nm after an hour of incubation in the dark.
# [2] = test system: P. falciparum K1 (chloroquine-resistant); test: pLDH antimalarial assay, P. falciparum K1 culture; type: cell-based, Plasmodium falciparum; conditions: for Resistance Index (RI), (EC50 Resistance/EC50 Sensitive): K1/3D7; for EC50: Plasmodium falciparum, read-out: P. falciparum K1 (CQ-Resistant) EC50 ± S.D.; for Selectivity Index (SI), (CC50 MTT/EC50 pLDH), CQ-Resistant: Vero CC50 / K1 EC50
# Procedure: as §1
# MTT cytotoxicity assay = type: cell-based; conditions: African green monkey, Vero cells (ATCC CCL-81), read-out: Vero Cell (Normal Cell) CC50 ± S.D.
# Procedure: The cytotoxicity of the hybrid 4-aminoquinoline-pyrano[2,3-c]pyrazole derivatives was measured using the MTT assay described by Mossmann. […] The cell suspension without test compounds served as the positive control for cell growth. […] The medium was then aspirated, and formazan crystals were solubilized by adding 100 μL of DMSO per well for 10 min at 37 °C in a CO2 incubator. […] Three independent tests were conducted to determine the cytotoxicity of each test compound.
# P. berghei = test system: P. berghei; parameters: method as in PMID 30737133; conditions: P. berghei-infected mice, 5th day after infection; cited from earlier work
# P. falciparum = test system: P. falciparum; parameters: method as in doi:10.1039/C6RA01349J; conditions: comparator value; read-out: antiplasmodial activity against P. falciparum; cited from earlier work
# [3] = 3D7, chloroquine-sensitive strain, pLDH assay, 48 h
# [4] = K1, chloroquine-resistant strain, pLDH assay, 48 h
SMILES,"EC50 [1, 3] [nM]","Selectivity Index (SI), (CC50 MTT/EC50 pLDH), CQ-Sensitive [1]","Resistance Index (RI), (EC50 Resistance/EC50 Sensitive) [2]","EC50 [2, 4] [nM]","Selectivity Index (SI), (CC50 MTT/EC50 pLDH), CQ-Resistant [2]",CC50 at 48 h (MTT cytotoxicity assay) [nM],"EC50 ([1]; 3D7, 48 h) [nM]","EC50 ([2]; K1, 48 h) [nM]",Antimalarial activity class against K1 ([2]; class by EC50 threshold),Antimalarial activity class against 3D7 ([1]; class by EC50 threshold),reduction of parasitemia (P. berghei) [%],IC50 (P. falciparum) [nM]
Nc1ccnc2ccccc12 [4-aminoquinoline],9290 ± 120,12.25,15.11,140000 ± 27600,0.81,114000 ± 1630,–,–,–,–,–,–
"C[C@@H]1CC[C@H]2[C@@H](C)C(=O)O[C@@H]3O[C@@]4(C)CC[C@@H]1[C@]32OO4 [ART, artemisinin, reference compound]",0.1,>2000,1.7,0.17,>2000,–,–,–,–,–,–,–
"CCN(CC)CCCC(C)Nc1ccnc2cc(Cl)ccc12 (stereo not drawn) [CQ, chloroquine, reference compound]",–,–,–,–,–,–,2,330,–,–,–,–
"CCOC(=O)c1nn(CCNc2ccnc3cc(Cl)ccc23)c2c1C(c1ccccc1)C(C#N)=C(N)O2 (stereo not drawn) [Compound 4a, Ethyl 6-Amino-1-(2-((7-chloroquinolin-4-yl)amino)ethyl)-5-cyano-4-phenyl-1,4-dihydropyrano[2,3-c]pyrazole-3-carboxylate]",190 ± 70,539.7,1.32,250 ± 30,410.16,–,–,–,–,–,–,–
"CCOC(=O)c1nn(CCNc2ccnc3cc(Cl)ccc23)c2c1C(c1ccc(CC)cc1)C(C#N)=C(N)O2 (stereo not drawn) [Compound 4b, Ethyl 6-Amino-1-(2-((7-chloroquinolin-4-yl)amino)ethyl)-5-cyano-4-(4-ethylphenyl)-1,4-dihydropyrano[2,3-c]pyrazole-3-carboxylate]",13 ± 0.2,1353.9,1.53,20 ± 10,880,–,–,–,–,–,–,–
"CCOC(=O)c1nn(CCNc2ccnc3cc(Cl)ccc23)c2c1C(c1ccco1)C(C#N)=C(N)O2 (stereo not drawn) [Compound 4c, Ethyl 6-Amino-1-(2-((7-chloroquinolyn-4-yl)amino)ethyl)-5-cyano-4-(furan-2-yl)-1,4-dihydropyrano[2,3-c]pyrazole-3-carboxylate]",113 ± 2,747.9,14.24,1610 ± 150,52.49,–,–,–,active,–,–,–
"CCOC(=O)c1nn(CCNc2ccnc3cc(Cl)ccc23)c2c1C(C(C)C)C(C#N)=C(N)O2 (stereo not drawn) [Compound 4d, Ethyl 6-Amino-1-(2-((7-chloroquinolyn-4-yl)amino)ethyl)-5-cyano-4-isopropyl-1,4-dihydropyrano[2,3-c]pyrazole-3-carboxylate]",3390 ± 1890,25.4,0.09,300 ± 10,287,–,–,–,–,active,–,–
"CCOC(=O)c1nn(CCNc2ccnc3cc(Cl)ccc23)c2c1C(c1ccc(O)cc1)C(C#N)=C(N)O2 (stereo not drawn) [Compound 4e, Ethyl 6-Amino-1-(2-((7-chloroquinolyn-4-yl)amino)ethyl)-5-cyano-4-(4-hydroxyphenyl)-1,4-dihydropyrano[2,3-c]pyrazole-3-carboxylate]",26 ± 9,355.3,273.84,7120 ± 3720,1.3,–,–,–,–,–,–,–
"Cc1nnc(Nc2cc(C(F)(F)F)nc3c(C(F)(F)F)cccc23)[nH]1 [VIII, N-(5-methyl-4H-1,2,4-triazol-3-yl)-2,8-bis(trifluoromethyl)quinolin-4-amine]",–,–,–,–,–,–,–,–,–,–,66,–
C=C[C@H]1C[N@@]2CC[C@H]1C[C@H]2[C@H](O)c1ccnc2ccc(OC)cc12 [quinine],–,–,–,–,–,–,–,–,–,–,–,826

# Source: PMC8622706, “Synthesis, Molecular Docking, and Antimalarial Activity of Hybrid 4-Aminoquinoline-pyrano[2,3-c]pyrazole Derivatives” (Pharmaceuticals, 2021)
